Here are results for 1 molecule from PMC13047053, “Crystal structure of human INPP5K with an allosteric inhibitor reveals the structural basis for species specific potency” (Scientific Reports, 2026).

The structures appear in SMILES notation.

The target of test [1] is T1, human INPP5K-cd (catalytic domain, 1-328) (Homo sapiens, UniProt Q9BT40).
T1 construct: human INPP5K catalytic domain (amino acids 1–328, INPP5K-cd, UniProt ID: Q9BT40); His6-MBP (MBP amino acids 1–387) (N, cleaved yes); TEV protease site ENLYFQG (N, cleaved yes); made in house; host or cells: E. coli Rosetta2 (DE3)
T1 sequence (Q9BT40 1-328): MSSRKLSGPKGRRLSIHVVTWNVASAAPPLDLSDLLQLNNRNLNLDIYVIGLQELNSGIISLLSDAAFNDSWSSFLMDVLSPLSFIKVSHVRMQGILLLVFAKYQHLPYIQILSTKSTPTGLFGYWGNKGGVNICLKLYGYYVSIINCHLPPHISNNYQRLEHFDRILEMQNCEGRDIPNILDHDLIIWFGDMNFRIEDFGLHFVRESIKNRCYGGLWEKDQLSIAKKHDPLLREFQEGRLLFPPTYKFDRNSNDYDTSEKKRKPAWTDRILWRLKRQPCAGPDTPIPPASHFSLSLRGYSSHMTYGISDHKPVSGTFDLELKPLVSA
The test is described as follows: Fluorescence polarization assay to evaluate phosphatase inhibition. It counts as biochemical. The note with it: 20 µM diC8-PI(3,4,5)P3, 30 min. The text has this: (§1) The oligonucleotides used for vector construction were synthesized and purchased from GenScript Inc. (Tokyo, Japan). The cDNA encoding human INPP5K catalytic domain (amino acids 1–328, INPP5K-cd, UniProt ID: Q9BT40), which excluded the SKICH region from the full-length INPP5K sequence, was cloned downstream of MBP (amino acids 1–387) with an N-terminal His6-tag in the pET28 expression vector, a Novagen product (Merck KGaA, Darmstadt, Germany). Between the MBP and INPP5K-cd sequences, the Tobacco Etch Virus protease cleavage site (ENLYFQG) was inserted, such that the MBP–INPP5K-cd fusion protein could be digested by TEV protease during purification. Furthermore, using the Gibson Assembly method, the sequence encoding the amino acids 280–299 ([…]) of INPP5K cd was replaced by the sequence encoding AKANPSGFLLTQKD, which corresponds to the amino acids 283–296 of the rat INPP5K-cd (UniProt ID: Q9R0B6), resulting in the deletion of six amino acid residues (delta-INPP5K-cd). The truncated construct was designed using a comparison between a structure model and the structures of several IP5Pases[9]–[11]. […] The concentration of protein obtained was measured using the Bradford method, with bovine serum albumin as the standard. Fractions corresponding to each purification step were analyzed by SDS-PAGE, followed by staining of the gel with Coomassie brilliant blue R-250. […]

Test [2] deals with T2, human delta-INPP5K-cd (loop-substituted catalytic domain) (Homo sapiens, UniProt Q9BT40, C280K/DEL284-290/G282N/G299D/H292G/INS279A/L297Q/R298K/S294L/S296T).
T2 construct: human INPP5K catalytic domain (amino acids 1–328, INPP5K-cd, UniProt ID: Q9BT40); His6-MBP (MBP amino acids 1–387) (N, cleaved yes); TEV protease site ENLYFQG (N, cleaved yes); made in house; host or cells: E. coli Rosetta2 (DE3)
T2 sequence (Q9BT40 other isoform, or with tags, fused parts or gaps with the stated changes): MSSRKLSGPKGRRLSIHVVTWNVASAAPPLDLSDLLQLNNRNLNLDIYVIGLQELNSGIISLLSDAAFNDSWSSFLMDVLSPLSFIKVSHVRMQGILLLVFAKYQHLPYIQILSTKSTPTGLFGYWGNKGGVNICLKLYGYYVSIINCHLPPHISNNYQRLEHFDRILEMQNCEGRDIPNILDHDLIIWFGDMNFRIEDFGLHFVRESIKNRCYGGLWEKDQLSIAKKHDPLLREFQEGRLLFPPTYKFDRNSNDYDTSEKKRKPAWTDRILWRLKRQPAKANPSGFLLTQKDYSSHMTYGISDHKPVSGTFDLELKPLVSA
The test is described as above. It counts as biochemical. The note with it: 20 µM diC8-PI(3,4,5)P3, 30 min.
Description: as §1

For the molecule `CC(C)c1sc(NC(=O)c2ccccc2)c(C(=O)O)c1-c1ccccc1` [CPD-1], the figures for the IC50 in test [1] and in test [2] were 2.3 µM and 2.9 µM, respectively.
